Measured values as given in PubChem BioAssay (NCI).
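Five concentrations, 48 hours, 96-well plates. GI50 is the concentration that inhibits growth by half. Definition used: TGI = concentration required for complete inhibition of growth.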

Experiments:
Test in all cases: DTP human tumour cell line panel, 48 h
SF-295 CNS = tested on: SF-295 CNS
HCT-15 colon = tested on: HCT-15 colon
NCI-H522 lung = tested on: NCI-H522 lung
RXF 393 renal = tested on: RXF 393 renal
U251 CNS = tested on: U251 CNS
A498 renal = tested on: A498 renal
SK-MEL-5 melanoma = tested on: SK-MEL-5 melanoma
SR leukemia = tested on: SR leukemia
SF-268 CNS = tested on: SF-268 CNS
OVCAR-4 ovarian = tested on: OVCAR-4 ovarian
NCI-H226 lung = tested on: NCI-H226 lung
MCF7 breast = tested on: MCF7 breast
MDA-MB-231 breast = tested on: MDA-MB-231 breast
SNB-19 CNS = tested on: SNB-19 CNS
OVCAR-3 ovarian = tested on: OVCAR-3 ovarian
MOLT-4 leukemia = tested on: MOLT-4 leukemia
LOX IMVI melanoma = tested on: LOX IMVI melanoma
SN12C renal = tested on: SN12C renal
EKVX NSCLC = tested on: EKVX NSCLC
PC-3 prostate = tested on: PC-3 prostate
BT-549 breast = tested on: BT-549 breast
K-562 leukemia = tested on: K-562 leukemia
HCT-116 colon = tested on: HCT-116 colon
SNB-75 CNS = tested on: SNB-75 CNS
HS 578T breast = tested on: HS 578T breast
HOP-62 NSCLC = tested on: HOP-62 NSCLC
HL-60(TB) leukemia = tested on: HL-60(TB) leukemia
UACC-257 melanoma = tested on: UACC-257 melanoma
HCC-2998 colon = tested on: HCC-2998 colon
NCI/ADR-RES ovarian = tested on: NCI/ADR-RES ovarian
HOP-92 NSCLC = tested on: HOP-92 NSCLC
MDA-MB-435 = tested on: MDA-MB-435
MALME-3M melanoma = tested on: MALME-3M melanoma
SK-MEL-2 melanoma = tested on: SK-MEL-2 melanoma
ACHN renal = tested on: ACHN renal
SK-MEL-28 melanoma = tested on: SK-MEL-28 melanoma
SK-OV-3 ovarian = tested on: SK-OV-3 ovarian
RPMI-8226 leukemia = tested on: RPMI-8226 leukemia
CCRF-CEM leukemia = tested on: CCRF-CEM leukemia
IGROV1 ovarian = tested on: IGROV1 ovarian
A549 NSCLC = tested on: A549 NSCLC
OVCAR-8 ovarian = tested on: OVCAR-8 ovarian
M14 melanoma = tested on: M14 melanoma
786-0 renal = tested on: 786-0 renal
HT29 colon = tested on: HT29 colon
T-47D breast = tested on: T-47D breast
SW-620 colon = tested on: SW-620 colon
UACC-62 melanoma = tested on: UACC-62 melanoma
KM12 colon = tested on: KM12 colon
OVCAR-5 ovarian = tested on: OVCAR-5 ovarian
NCI-H23 lung = tested on: NCI-H23 lung
NCI-H460 lung = tested on: NCI-H460 lung
TK-10 renal = tested on: TK-10 renal
COLO 205 colon = tested on: COLO 205 colon
CAKI-1 renal = tested on: CAKI-1 renal
SF-539 CNS = tested on: SF-539 CNS
DU-145 prostate = tested on: DU-145 prostate
UO-31 renal = tested on: UO-31 renal
MDA-N = tested on: MDA-N

Structure (SMILES): Cc1cnc(C(=O)Nc2nc3ccc(S(=O)(=O)Nc4ccc(C5(C(F)(F)F)CC5)cc4)cc3[nH]2)cn1
- GI50 (SF-295 CNS): 0.237 µM
- TGI (SF-295 CNS): 3.27 µM
- GI50 (HCT-15 colon): 0.205 µM
- TGI (HCT-15 colon): 5.09 µM
- GI50 (NCI-H522 lung): 0.251 µM
- TGI (NCI-H522 lung): 11.2 µM
- GI50 (RXF 393 renal): 0.226 µM
- TGI (RXF 393 renal): 1.11 µM
- GI50 (U251 CNS): 0.57 µM
- TGI (U251 CNS): 5.4 µM
- GI50 (A498 renal): 0.228 µM
- TGI (A498 renal): 0.882 µM
- GI50 (SK-MEL-5 melanoma): 0.232 µM
- TGI (SK-MEL-5 melanoma): 3.85 µM
- GI50 (SR leukemia): 0.0777 µM
- TGI (SR leukemia): > 39.5 µM
- GI50 (SF-268 CNS): 0.733 µM
- TGI (SF-268 CNS): 11.9 µM
- GI50 (OVCAR-4 ovarian): 2.07 µM
- TGI (OVCAR-4 ovarian): 9.26 µM
- GI50 (NCI-H226 lung): 0.566 µM
- TGI (NCI-H226 lung): 6.34 µM
- GI50 (MCF7 breast): 0.287 µM
- TGI (MCF7 breast): 5.68 µM
- GI50 (MDA-MB-231 breast): 1.5 µM
- TGI (MDA-MB-231 breast): 15.6 µM
- GI50 (SNB-19 CNS): 0.553 µM
- TGI (SNB-19 CNS): 13.3 µM
- GI50 (OVCAR-3 ovarian): 0.25 µM
- TGI (OVCAR-3 ovarian): 1.34 µM
- GI50 (MOLT-4 leukemia): 0.501 µM
- TGI (MOLT-4 leukemia): 14.5 µM
- GI50 (LOX IMVI melanoma): 0.539 µM
- TGI (LOX IMVI melanoma): 5.6 µM
- GI50 (SN12C renal): 0.519 µM
- TGI (SN12C renal): 5.87 µM
- GI50 (EKVX NSCLC): 0.701 µM
- TGI (EKVX NSCLC): 9.34 µM
- GI50 (PC-3 prostate): 0.311 µM
- TGI (PC-3 prostate): 4.39 µM
- GI50 (BT-549 breast): 0.965 µM
- TGI (BT-549 breast): 12.7 µM
- GI50 (K-562 leukemia): 0.216 µM
- TGI (K-562 leukemia): 12.7 µM
- GI50 (HCT-116 colon): 0.452 µM
- TGI (HCT-116 colon): 10.5 µM
- GI50 (SNB-75 CNS): 0.183 µM
- TGI (SNB-75 CNS): 0.786 µM
- GI50 (HS 578T breast): 0.367 µM
- TGI (HS 578T breast): 6.54 µM
- GI50 (HOP-62 NSCLC): 0.622 µM
- TGI (HOP-62 NSCLC): 6.71 µM
- GI50 (HL-60(TB) leukemia): 0.296 µM
- TGI (HL-60(TB) leukemia): 0.924 µM
- GI50 (UACC-257 melanoma): 5.13 µM
- TGI (UACC-257 melanoma): 29.9 µM
- GI50 (HCC-2998 colon): 1.13 µM
- TGI (HCC-2998 colon): 10.4 µM
- GI50 (NCI/ADR-RES ovarian): 0.26 µM
- TGI (NCI/ADR-RES ovarian): 1.69 µM
- GI50 (HOP-92 NSCLC): 0.387 µM
- TGI (HOP-92 NSCLC): 6.46 µM
- GI50 (MDA-MB-435): 0.0571 µM
- TGI (MDA-MB-435): 0.238 µM
- GI50 (MALME-3M melanoma): 0.345 µM
- TGI (MALME-3M melanoma): 8.65 µM
- GI50 (SK-MEL-2 melanoma): 0.784 µM
- TGI (SK-MEL-2 melanoma): 20.1 µM
- GI50 (ACHN renal): 0.552 µM
- TGI (ACHN renal): 14 µM
- GI50 (SK-MEL-28 melanoma): 1.19 µM
- TGI (SK-MEL-28 melanoma): 12.2 µM
- GI50 (SK-OV-3 ovarian): 1.57 µM
- TGI (SK-OV-3 ovarian): 22.7 µM
- GI50 (RPMI-8226 leukemia): 0.354 µM
- TGI (RPMI-8226 leukemia): 6.86 µM
- GI50 (CCRF-CEM leukemia): 0.379 µM
- TGI (CCRF-CEM leukemia): 22.8 µM
- GI50 (IGROV1 ovarian): 0.606 µM
- TGI (IGROV1 ovarian): 5.02 µM
- GI50 (A549 NSCLC): 0.57 µM
- TGI (A549 NSCLC): 9.66 µM
- GI50 (OVCAR-8 ovarian): 0.722 µM
- TGI (OVCAR-8 ovarian): 23.4 µM
- GI50 (M14 melanoma): 0.328 µM
- TGI (M14 melanoma): 2.74 µM
- GI50 (786-0 renal): 0.484 µM
- TGI (786-0 renal): 6.65 µM
- GI50 (HT29 colon): 0.364 µM
- TGI (HT29 colon): 10.9 µM
- GI50 (T-47D breast): 0.596 µM
- TGI (T-47D breast): 17.2 µM
- GI50 (SW-620 colon): 0.369 µM
- TGI (SW-620 colon): 5.92 µM
- GI50 (UACC-62 melanoma): 0.372 µM
- TGI (UACC-62 melanoma): 6.99 µM
- GI50 (KM12 colon): 0.309 µM
- TGI (KM12 colon): 13 µM
- GI50 (OVCAR-5 ovarian): 0.785 µM
- TGI (OVCAR-5 ovarian): 10.9 µM
- GI50 (NCI-H23 lung): 0.416 µM
- TGI (NCI-H23 lung): 5.98 µM
- GI50 (NCI-H460 lung): 0.351 µM
- TGI (NCI-H460 lung): 3.95 µM
- GI50 (TK-10 renal): 1.48 µM
- TGI (TK-10 renal): 12 µM
- GI50 (COLO 205 colon): 0.414 µM
- TGI (COLO 205 colon): 9.35 µM
- GI50 (CAKI-1 renal): 0.36 µM
- TGI (CAKI-1 renal): 15.7 µM
- GI50 (SF-539 CNS): 0.314 µM
- TGI (SF-539 CNS): 3.3 µM
- GI50 (DU-145 prostate): 0.357 µM
- TGI (DU-145 prostate): 2.23 µM
- GI50 (UO-31 renal): 0.481 µM
- TGI (UO-31 renal): 6.2 µM

Structure (SMILES): C=C(C)[C@@H]1CCC2=C[C@H](OC2=O)[C@@]2(C)C[C@@H]2C2=CC(C)=C(O2)[C@H]1O
- TGI (SF-295 CNS): > 75 µM
- TGI (HCT-15 colon): > 75 µM
- TGI (NCI-H522 lung): 48.2 µM
- TGI (RXF 393 renal): > 75 µM
- TGI (U251 CNS): > 75 µM
- TGI (A498 renal): > 75 µM
- TGI (SR leukemia): > 75 µM
- TGI (SF-268 CNS): > 75 µM
- TGI (OVCAR-4 ovarian): > 75 µM
- TGI (NCI-H226 lung): > 75 µM
- TGI (MCF7 breast): > 75 µM
- TGI (MDA-MB-231 breast): > 75 µM
- TGI (SNB-19 CNS): > 75 µM
- TGI (OVCAR-3 ovarian): > 75 µM
- TGI (MOLT-4 leukemia): > 75 µM
- TGI (LOX IMVI melanoma): > 75 µM
- TGI (SN12C renal): > 75 µM
- TGI (EKVX NSCLC): > 75 µM
- TGI (PC-3 prostate): > 75 µM
- TGI (K-562 leukemia): > 75 µM
- TGI (HCT-116 colon): > 75 µM
- TGI (SNB-75 CNS): > 75 µM
- TGI (HOP-62 NSCLC): > 75 µM
- TGI (HL-60(TB) leukemia): > 75 µM
- TGI (UACC-257 melanoma): > 75 µM
- TGI (HCC-2998 colon): > 75 µM
- TGI (NCI/ADR-RES ovarian): > 75 µM
- TGI (HOP-92 NSCLC): > 75 µM
- TGI (MDA-MB-435): > 75 µM
- TGI (MALME-3M melanoma): > 75 µM
- TGI (SK-MEL-2 melanoma): > 75 µM
- TGI (ACHN renal): > 75 µM
- TGI (SK-MEL-28 melanoma): > 75 µM
- TGI (MDA-N): > 75 µM
- TGI (SK-OV-3 ovarian): > 75 µM
- TGI (CCRF-CEM leukemia): > 75 µM
- TGI (IGROV1 ovarian): > 75 µM
- TGI (A549 NSCLC): > 75 µM
- TGI (OVCAR-8 ovarian): > 75 µM
- TGI (M14 melanoma): > 75 µM
- TGI (786-0 renal): > 75 µM
- TGI (HT29 colon): > 75 µM
- TGI (T-47D breast): > 75 µM
- TGI (SW-620 colon): > 75 µM
- TGI (UACC-62 melanoma): > 75 µM
- TGI (KM12 colon): > 75 µM
- TGI (OVCAR-5 ovarian): > 75 µM
- TGI (NCI-H23 lung): > 75 µM
- TGI (NCI-H460 lung): > 75 µM
- TGI (TK-10 renal): > 75 µM
- TGI (COLO 205 colon): > 75 µM
- TGI (CAKI-1 renal): > 75 µM
- TGI (SF-539 CNS): > 75 µM
- TGI (DU-145 prostate): > 75 µM
- TGI (UO-31 renal): > 75 µM
